Results reported in patent publication US8722849B2, “Polypeptides” (Novo Nordisk A/S, priority 2011, dated 2014).
pEC50: −log10 of the molar value. Converted amounts (≈) assume the structure as drawn. Read-outs that look alike come from different tables or passages of the source. Starred links: 1 amine or outer side, 2 acyl side, 3 side chain; linkers in the order of their positions; H or OH if unused. Positions of bridges follow the written chain, without caps; N, C: chain ends. Residues, ends and D or L forms follow the SMILES beside them. *: point of attachment. C20 diacid = O=C(O)CCCCCCCCCCCCCCCCCCC(=O)*; γGlu = O=C(O)[C@H](CCC(=O)[*:2])N[*:1]

Assays:
[1] = target: T1, human calcitonin receptor (Homo sapiens, UniProt P30988); test: Assay (II)a functional CRE-luciferase assay, human calcitonin receptor; type: cell-based; settings: Table 7; human calcitonin (CTa) receptor
T1 construct: expressed in transfected cells; host or cells: BHK570
T1 sequence (P30988 25-474): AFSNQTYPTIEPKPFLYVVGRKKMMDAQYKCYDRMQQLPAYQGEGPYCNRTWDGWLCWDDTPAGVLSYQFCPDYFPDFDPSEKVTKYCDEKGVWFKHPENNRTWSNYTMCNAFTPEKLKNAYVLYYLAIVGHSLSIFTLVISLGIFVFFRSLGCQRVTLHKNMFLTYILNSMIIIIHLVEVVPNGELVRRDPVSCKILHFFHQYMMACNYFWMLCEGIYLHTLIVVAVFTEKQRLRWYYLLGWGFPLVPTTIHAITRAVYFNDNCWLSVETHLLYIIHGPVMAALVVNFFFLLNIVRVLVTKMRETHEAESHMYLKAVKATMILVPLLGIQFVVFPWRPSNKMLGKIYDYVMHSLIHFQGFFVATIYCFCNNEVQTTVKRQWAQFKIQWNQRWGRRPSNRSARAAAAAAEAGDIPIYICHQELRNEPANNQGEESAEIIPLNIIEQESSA

[2] = Assay (IV) determination of solubility; type: physicochemical
Summary of the method: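 Stock ~500 nmol/ml in water; 1:1 with 100 mM buffer, pH 3.0–8.0 (glycylglycine ≤5.0, bistrispropane ≥6.0); 18 h RT; spin; HPLC quantitation of soluble polypeptide.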

[3] = target: T2, rat amylin 3(a) receptor (rat calcitonin(a) receptor + rat RAMP3) (Rattus norvegicus, UniProt P32214+Q9JJ73); test: Assay (II)b functional cAMP FlashPlate assay, rat amylin receptor; type: cell-based; settings: Table 11
T2 construct: expressed in transfected cells; host or cells: BHK tk'ts 13
T2 sequence (P32214 25-479 isoform P32214-2 limits assumed): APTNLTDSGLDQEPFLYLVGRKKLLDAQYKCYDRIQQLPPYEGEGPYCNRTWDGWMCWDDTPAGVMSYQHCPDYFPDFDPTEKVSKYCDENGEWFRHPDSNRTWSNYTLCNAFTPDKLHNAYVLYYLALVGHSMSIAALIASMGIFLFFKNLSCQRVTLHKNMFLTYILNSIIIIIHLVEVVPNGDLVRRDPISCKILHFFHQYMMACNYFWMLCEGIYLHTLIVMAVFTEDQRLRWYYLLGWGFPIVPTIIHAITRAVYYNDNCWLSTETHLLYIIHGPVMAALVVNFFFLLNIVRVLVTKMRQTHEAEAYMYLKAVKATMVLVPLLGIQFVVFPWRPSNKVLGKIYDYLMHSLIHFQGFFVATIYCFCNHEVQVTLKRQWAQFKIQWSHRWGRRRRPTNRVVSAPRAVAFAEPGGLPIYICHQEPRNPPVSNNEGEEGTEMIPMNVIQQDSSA
T2 sequence (Q9JJ73 23-147 partner): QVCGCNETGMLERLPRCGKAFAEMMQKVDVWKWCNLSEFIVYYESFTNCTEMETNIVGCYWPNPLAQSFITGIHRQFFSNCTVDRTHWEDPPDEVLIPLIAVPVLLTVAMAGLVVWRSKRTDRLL
Excerpt: (§1) Assay (II)b—Rat Calcitonin and Rat Amylin Receptor Assays
(§2) Activation of calcitonin and amylin (coexpression of calcitonin receptor and receptor activity modifying proteins (RAMP)) receptors lead to increased intracellular concentrations of cAMP. In order to quantify the cAMP levels in transiently transfected cells the Adenylyl Cyclase Activation FlashPlate® Assay from […] was used. The basic principle of the FlashPlate® Assay is a competition between radioactive and non-radioactive cAMP generated by the cells for a fixed number of binding sites.
(§3) Construction of rat calcitonin(a)—and rat amylin 3(a)-receptor cells.
(§4) BHK tk'ts 13 cells were transiently transfected with either rat calcitonin (a) receptor or amylin 3 (a) receptor (rat calcitonin(a) receptor+ rat RAMP3) using FuGENE® 6 (ROCHE), according to the manufacturers recommendations.
(§5) 24 hours after transient transfection the cells (rat calcitonin(a)—or rat amylin 3(a)—receptor cells) were added (100.000 cells/well) to the 96 well FlashPlates® with samples or standard in FlashPlate stimulation buffer with IBMX and incubated for 30 min. Detection mix was created according to manufacturers protocol and scintillation measured after 3 h of incubation on TopCounter™ (Packard).

[4] = target: T3, human amylin receptor (amylin 3(a) receptor: human calcitonin receptor + RAMP-3) (Homo sapiens, UniProt O60896+P30988); test: Assay (II)a functional CRE-luciferase assay, human amylin receptor; type: cell-based; settings: Table 2; BHK amylin 3(a)-receptor/CRE-luc cells
T3 construct: expressed in transfected cells; host or cells: BHK570
T3 sequence (P30988 25-474): T1 sequence (P30988 25-474)
T3 sequence (O60896 24-148 partner): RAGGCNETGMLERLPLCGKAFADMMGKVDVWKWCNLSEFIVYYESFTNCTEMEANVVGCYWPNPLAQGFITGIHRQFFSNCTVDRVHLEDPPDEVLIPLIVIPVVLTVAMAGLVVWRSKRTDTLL

[5] = target: T4, rat calcitonin (a) receptor (Rattus norvegicus, UniProt P32214); test: Assay (II)b functional cAMP FlashPlate assay, rat calcitonin receptor; type: cell-based; settings: Table 11; read-out: CTa receptor rat EC50
T4 construct: expressed in transfected cells; host or cells: BHK tk'ts 13
T4 sequence (P32214 25-479 isoform P32214-2 limits assumed): T2 sequence (P32214 25-479 isoform P32214-2 limits assumed)
Excerpt: as §1, §2, §3, §4, §5

[6] = bistrispropane buffer, pH 6, pH 6.0, read-out: Solubility pH 6.0
[7] = bistrispropane buffer, pH 6.5, pH 6.5, read-out: Solubility pH 6.5
[8] = bistrispropane buffer, pH 7.5, pH 7.5, read-out: Solubility pH 7.5
[9] = bistrispropane buffer, pH 8, pH 8.0, read-out: Solubility pH 8.0
[10] = glycylglycine buffer, pH 3, pH 3.0, read-out: Solubility pH 3.0
[11] = glycylglycine buffer, pH 4, pH 4.0, 18 hours at room temperature, Table 2, read-out: Solubility pH 4.0
[12] = glycylglycine buffer, pH 4, pH 4.0, read-out: Solubility pH 4.0
[13] = glycylglycine buffer, pH 5, pH 5.0, read-out: Solubility pH 5.0
[14] = bistrispropane buffer, pH 7, pH 7.0, read-out: Solubility pH 7.0

Compound | pEC50 [1] | solubility at 18 h [2, 6] [µM] | solubility at 18 h [2, 7] [µM] | solubility at 18 h [2, 8] [µM] | solubility at 18 h [2, 9] [µM] | solubility at 18 h [2, 10] [µM] | solubility at 18 h [2, 11] [µM] | solubility at 18 h [2, 12] [µM] | solubility at 18 h [2, 13] [µM] | solubility at 18 h ([2]; pH 7.0, read-out: Solubility pH 7.0) [µM] | pEC50 [3] | pEC50 [4] | pEC50 [5] | solubility at 18 h [2, 14] [µM]
CC[C@H](C)[C@H](NC(=O)[C@@H]1CCCN1C(=O)CNC(=O)[C@H](Cc1ccccc1)NC(=O)[C@H](CC(N)=O)NC(=O)[C@H](CC(N)=O)NC(=O)[C@H](CO)NC(=O)[C@H](CO)NC(=O)[C@H](Cc1cnc[nH]1)NC(=O)[C@H](CCCNC(=N)N)NC(=O)[C@H](CC(C)C)NC(=O)[C@H](Cc1ccccc1)NC(=O)[C@H](CCC(=O)O)NC(=O)[C@H](C)NC(=O)[C@H](CC(C)C)NC(=O)[C@H](CCCNC(=N)N)NC(=O)[C@H](CCC(N)=O)NC(=O)[C@@H](NC(=O)[C@H](C)NC(=O)[C@@H]1CSSC[C@H](NC(=O)[C@H](Cc2cnc[nH]2)NC(=O)[C@H](Cc2cnc[nH]2)NC(=O)[C@H](Cc2cnc[nH]2)NC(=O)CC[C@H](NC(=O)CCCCCCCCCCCCCCCCCCC(=O)O)C(=O)O)C(=O)N[C@@H](CC(N)=O)C(=O)N[C@@H]([C@@H](C)O)C(=O)N[C@@H](C)C(=O)N[C@@H]([C@@H](C)O)C(=O)N1)[C@@H](C)O)C(=O)N[C@@H](CC(C)C)C(=O)N1CCC[C@H]1C(=O)N1CCC[C@H]1C(=O)N[C@H](C(=O)N[C@@H](CC(N)=O)C(=O)N[C@H](C(=O)NCC(=O)N[C@@H](CO)C(=O)N[C@@H](CC(N)=O)C(=O)N[C@H](C(=O)N[C@@H](Cc1ccc(O)cc1)C(N)=O)[C@@H](C)O)C(C)C)[C@@H](C)O [Example 12, N-alpha-[(S)-4-Carboxy-4-(19-carboxynonadecanoylamino)butyryl]-His-His-[His1,Glu14,Arg17]-pramlintide] ({C20 diacid-γGlu}-HHHCNTATCATQRLAEFLRHSSNNFGPILPPTNVGSNTY-NH2; disulfide 4-9) | 9.39 | > 200 | 45 (≈ 214 µg/mL) | 26 (≈ 124 µg/mL) | 69 (≈ 328 µg/mL) | > 200 | > 200 | > 200 | > 200 | 9 (≈ 42.8 µg/mL) | 10.09 | 10.11 | 8.17 | –
CC[C@H](C)[C@H](NC(=O)[C@@H]1CCCN1C(=O)CNC(=O)[C@H](Cc1ccccc1)NC(=O)[C@H](CC(N)=O)NC(=O)[C@H](CC(N)=O)NC(=O)[C@H](CO)NC(=O)[C@H](CO)NC(=O)[C@H](Cc1cnc[nH]1)NC(=O)[C@H](Cc1cnc[nH]1)NC(=O)[C@H](CC(C)C)NC(=O)[C@H](Cc1ccccc1)NC(=O)[C@H](CCC(=O)O)NC(=O)[C@H](C)NC(=O)[C@H](CC(C)C)NC(=O)[C@H](CCCNC(=N)N)NC(=O)[C@H](CCC(N)=O)NC(=O)[C@@H](NC(=O)[C@H](C)NC(=O)[C@@H]1CSSC[C@H](NC(=O)[C@H](Cc2cnc[nH]2)NC(=O)[C@H](Cc2cnc[nH]2)NC(=O)CC[C@H](NC(=O)CCCCCCCCCCCCCCCCCCC(=O)O)C(=O)O)C(=O)N[C@@H](CC(N)=O)C(=O)N[C@@H]([C@@H](C)O)C(=O)N[C@@H](C)C(=O)N[C@@H]([C@@H](C)O)C(=O)N1)[C@@H](C)O)C(=O)N[C@@H](CC(C)C)C(=O)N1CCC[C@H]1C(=O)N1CCC[C@H]1C(=O)N[C@H](C(=O)N[C@@H](CC(N)=O)C(=O)N[C@H](C(=O)NCC(=O)N[C@@H](CO)C(=O)N[C@@H](CC(N)=O)C(=O)N[C@H](C(=O)N[C@@H](Cc1ccc(O)cc1)C(N)=O)[C@@H](C)O)C(C)C)[C@@H](C)O [Example 17, N-alpha-[(S)-4-Carboxy-4-(19-carboxynonadecanoylamino)butyryl]-His-[His1,Glu14,His17]-pramlintide] ({C20 diacid-γGlu}-HHCNTATCATQRLAEFLHHSSNNFGPILPPTNVGSNTY-NH2; disulfide 3-8) | 9.78 | 160 (≈ 736 µg/mL) | 66 (≈ 304 µg/mL) | > 200 | > 200 | > 200 | > 200 | > 200 | > 200 | – | 9.83 | 9.95 | 9.66 | 88 (≈ 405 µg/mL)
CC(C)C[C@H](NC(=O)[C@H](CCCNC(=N)N)NC(=O)[C@H](CCC(N)=O)NC(=O)[C@@H](NC(=O)[C@H](C)NC(=O)[C@@H]1CSSC[C@H](NC(=O)[C@H](Cc2c[nH]cn2)NC(=O)[C@H](Cc2c[nH]cn2)NC(=O)[C@H](Cc2c[nH]cn2)NC(=O)CC[C@H](NC(=O)CCCCCCCCCCCCCCCCCCC(=O)O)C(=O)O)C(=O)N[C@@H](CC(N)=O)C(=O)N[C@@H]([C@@H](C)O)C(=O)N[C@@H](C)C(=O)N[C@@H]([C@@H](C)O)C(=O)N1)[C@@H](C)O)C(=O)N[C@@H](C)C(=O)N[C@@H](CCC(=O)O)C(=O)N[C@@H](Cc1ccccc1)C(=O)N[C@@H](CC(C)C)C(=O)N[C@@H](Cc1c[nH]cn1)C(=O)N[C@@H](Cc1c[nH]cn1)C(=O)N[C@@H](CO)C(=O)N[C@@H](CO)C(=O)N[C@@H](CC(N)=O)C(=O)N[C@@H](CC(N)=O)C(=O)N[C@@H](Cc1ccccc1)C(=O)NCC(=O)N[C@@H](C)C(=O)N1CCC[C@H]1C(=O)N[C@@H](CC(C)C)C(=O)N[C@@H](CO)C(=O)N[C@@H](CO)C(=O)N[C@H](C(=O)N[C@@H](CC(N)=O)C(=O)N[C@H](C(=O)NCC(=O)N[C@@H](CO)C(=O)N[C@@H](CC(N)=O)C(=O)N[C@H](C(=O)N[C@@H](Cc1ccc(O)cc1)C(N)=O)[C@@H](C)O)C(C)C)[C@@H](C)O [Example 19, N-alpha-[(S)-4-Carboxy-4-(19-carboxynonadecanoylamino)butyryl]-His-His-[His1,Glu14,His17,Ala25,Pro26,Ser28,Ser29]-pramlintide] ({C20 diacid-γGlu}-HHHCNTATCATQRLAEFLHHSSNNFGAPLSSTNVGSNTY-NH2; disulfide 4-9 (inferred); C-terminus assumed) | 9.51 | 175 (≈ 819 µg/mL) | 35 (≈ 164 µg/mL) | 61 (≈ 285 µg/mL) | 158 (≈ 739 µg/mL) | > 200 | > 200 | > 200 | 155 (≈ 725 µg/mL) | – | 9.88 | 9.98 | 9.08 | 6 (≈ 28.1 µg/mL)
